From PubChem BioAssay (NCI)
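Cultured in 96-well plates, cells were exposed to test compound for 48 hours across five concentrations. TGI: total growth inhibition.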

Tests used:
Assay in all cases: inhibition of tumour cell growth, NCI panel, 48 h
BT-549 breast = tested on: BT-549 breast
HOP-62 NSCLC = tested on: HOP-62 NSCLC
HOP-92 NSCLC = tested on: HOP-92 NSCLC
M14 melanoma = tested on: M14 melanoma
NCI-H522 lung = tested on: NCI-H522 lung
OVCAR-8 ovarian = tested on: OVCAR-8 ovarian
SK-OV-3 ovarian = tested on: SK-OV-3 ovarian
SNB-19 CNS = tested on: SNB-19 CNS
T-47D breast = tested on: T-47D breast
UACC-62 melanoma = tested on: UACC-62 melanoma

Compound	TGI (BT-549 breast) [µM]	TGI (HOP-62 NSCLC) [µM]	TGI (HOP-92 NSCLC) [µM]	TGI (M14 melanoma) [µM]	TGI (NCI-H522 lung) [µM]	TGI (OVCAR-8 ovarian) [µM]	TGI (SK-OV-3 ovarian) [µM]	TGI (SNB-19 CNS) [µM]	TGI (T-47D breast) [µM]	TGI (UACC-62 melanoma) [µM]
CN(CCO)Cc1ncccc1O	> 100	> 100	> 100	> 100	> 100	> 100	> 100	> 100	> 100	> 100
CCCCN(CCCC)CCC(O)c1cc(-c2ccc(C(F)(F)F)cc2)nc(-c2ccc(C(F)(F)F)cc2)c1 (configuration not stated)	–	> 100	> 100	> 100	> 100	> 100	–	> 100	> 100	> 100
C[C@]12Cc3cnc(-c4ccccc4)nc3C[C@@H]1CC[C@@H]1[C@@H]2CC[C@@]2(C)[C@H]1CC[C@]2(C)O	54.6	41.6	54.4	32.5	31.2	40.4	50	44.3	39.7	48.4
CCOC(=O)Nc1sc2c(c1C#N)CC(C)CC2 (configuration not stated)	> 100	> 100	> 100	17.4	16.9	> 100	> 100	27	> 100	96.4
COc1ccc(C(=O)NC2=C(Cl)C(=O)c3ccccc3C2=O)cc1	9.64	60.8	2.73	6.95	1.49	14.4	9.85	17.4	3.83	2.63
COc1ccc(/C=C2\C[C@H]3[C@@H]4CC=C5C[C@@H](OC(C)=O)CC[C@]5(C)[C@H]4CC[C@]3(C)\C2=N\O)cc1OC	> 100	> 100	> 100	> 100	> 100	> 100	> 100	> 100	> 100	> 100
CC(C)=Cc1cc(C)c2c3c(c(O)c(O)c(C)c13)C(C)=CC2=O	–	47.2	38.6	48.9	41.2	> 100	89	> 100	49.3	50.8
CC[C@H](C)C1=C(OC(C)=O)[N@+]2([O-])Oc3ccc(-c4c(O)c(O)c(-c5ccc(OC(C)=O)cc5)c(OC(C)=O)c4OC(C)=O)cc3O[C@]2([C@@H](C)CC)C(=O)N1O	> 50	> 50	23	> 50	22.2	> 50	> 50	> 50	37.7	46.9
